Data published in article PMC7614683, “A small molecule PI3Kα activator for cardioprotection and neuroregeneration” (Nature, 2023).

Assays:
ULK2 = target: T1, ULK2 (Homo sapiens, UniProt Q8IYT8); experiment: SelectScreen LanthaScreen Binding; conditions: 1000 nM
T1 sequence (Q8IYT8 1-1036): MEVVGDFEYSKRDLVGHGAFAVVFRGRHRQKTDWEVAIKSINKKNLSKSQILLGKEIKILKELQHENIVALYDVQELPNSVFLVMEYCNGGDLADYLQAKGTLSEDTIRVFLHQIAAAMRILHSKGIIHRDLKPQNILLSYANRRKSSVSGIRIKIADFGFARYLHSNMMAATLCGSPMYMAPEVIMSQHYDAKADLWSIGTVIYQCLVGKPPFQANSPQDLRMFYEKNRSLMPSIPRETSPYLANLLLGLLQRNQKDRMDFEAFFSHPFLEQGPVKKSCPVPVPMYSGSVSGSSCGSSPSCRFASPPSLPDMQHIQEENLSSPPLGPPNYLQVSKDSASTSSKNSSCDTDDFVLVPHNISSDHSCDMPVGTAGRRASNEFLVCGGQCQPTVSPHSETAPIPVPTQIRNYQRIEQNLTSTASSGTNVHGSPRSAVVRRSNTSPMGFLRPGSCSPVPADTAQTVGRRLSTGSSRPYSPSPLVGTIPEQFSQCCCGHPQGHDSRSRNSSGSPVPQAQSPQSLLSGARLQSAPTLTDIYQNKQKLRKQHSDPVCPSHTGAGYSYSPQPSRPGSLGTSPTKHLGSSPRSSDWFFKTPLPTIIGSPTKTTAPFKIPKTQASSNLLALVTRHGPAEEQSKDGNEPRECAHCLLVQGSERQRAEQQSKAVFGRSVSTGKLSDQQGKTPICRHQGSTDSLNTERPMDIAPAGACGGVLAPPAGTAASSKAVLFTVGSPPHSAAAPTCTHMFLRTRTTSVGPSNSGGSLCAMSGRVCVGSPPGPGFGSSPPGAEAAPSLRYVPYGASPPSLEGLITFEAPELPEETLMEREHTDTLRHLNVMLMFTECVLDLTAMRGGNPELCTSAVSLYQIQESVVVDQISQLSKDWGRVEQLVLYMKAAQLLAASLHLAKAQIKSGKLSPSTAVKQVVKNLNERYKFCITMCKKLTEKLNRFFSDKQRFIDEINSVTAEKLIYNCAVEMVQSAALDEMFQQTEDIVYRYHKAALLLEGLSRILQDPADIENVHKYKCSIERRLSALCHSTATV
Method: (§1) 133 protein kinases and 7 lipid kinases were counterscreened, with 1938 used at 1 μM, using the Adapta, Lantha and Z-LYTE assays (SelectScreen Kinase Profiling Service; Thermofisher – experimental details of these assays can be found here: https://www.thermofisher.com/uk/en/home/industrial/pharma-biopharma/drug-discovery-development/target-and-lead-identification-and-validation/kinasebiology/kinase-activity-assays.html. The tree represention in KinMap[59] generated courtesy of Cell Signaling Technology, Inc. (www.cellsignal.com). mTORC1 (mTOR/RAPTOR/LST8) protein complex and ATM kinase and substrates were produced as previously described[57],[60]. Screening of 1938 was conducted using SuperSep Phos-Tag 50 μmol/l 100 x 100 x 6.6 mm 17-well (192-18001/199-18011) gels. For ATM assays, 100 nM ATM was incubated for 30 min at 30°C with 5 μM GST-p53 and 1 mM ATP, in the absence or presence of 200 μM 1938 in ATM Kinase Buffer (50 mM HEPES pH 7.5, 100 mM NaCl, 10% glycerol, 2 mM […], 5 mM MgCl2). As a positive control for ATM activation, the same reaction was carried out with 100 nM ATM/5 μM GST-p53/1 mM ATP in the presence of 100 nM Mre11-Rad50-Nbs1 (MRN) complex, a known activator of ATM[61]. For mTORC1 assays, 50 nM mTORC1 complex (mTOR/LST8/RAPTOR) was incubated for 3 h at 30°C with 15 μM 4E-BP1, 10 mM MgCl2 and 250 μM ATP, in the absence or presence of 200 μM 1938. As a ‘positive’ control, a higher concentration (150 nM) of mTORC1 complex (mTOR/LST8/RAPTOR) was incubated for 3 h at 30°C with 15 μM 4E-BP1, 10 mM MgCl2 and 250 μM ATP. Kinase reactions were quenched by addition of SDS-PAGE Loading Buffer (as per manufacturer’s instructions) and freezing at -20°C before being run on the Phos-tag gels at 150 V for 90 min. Gels were then stained using InstantBlue™ Coomassie, and quantified using BioRad Image Lab Software. Kinase assays were carried out in triplicate.

DMPK = target: T2, DMPK (Homo sapiens, UniProt Q09013); experiment: SelectScreen LanthaScreen Binding; conditions: 1000 nM
T2 sequence (Q09013 1-629): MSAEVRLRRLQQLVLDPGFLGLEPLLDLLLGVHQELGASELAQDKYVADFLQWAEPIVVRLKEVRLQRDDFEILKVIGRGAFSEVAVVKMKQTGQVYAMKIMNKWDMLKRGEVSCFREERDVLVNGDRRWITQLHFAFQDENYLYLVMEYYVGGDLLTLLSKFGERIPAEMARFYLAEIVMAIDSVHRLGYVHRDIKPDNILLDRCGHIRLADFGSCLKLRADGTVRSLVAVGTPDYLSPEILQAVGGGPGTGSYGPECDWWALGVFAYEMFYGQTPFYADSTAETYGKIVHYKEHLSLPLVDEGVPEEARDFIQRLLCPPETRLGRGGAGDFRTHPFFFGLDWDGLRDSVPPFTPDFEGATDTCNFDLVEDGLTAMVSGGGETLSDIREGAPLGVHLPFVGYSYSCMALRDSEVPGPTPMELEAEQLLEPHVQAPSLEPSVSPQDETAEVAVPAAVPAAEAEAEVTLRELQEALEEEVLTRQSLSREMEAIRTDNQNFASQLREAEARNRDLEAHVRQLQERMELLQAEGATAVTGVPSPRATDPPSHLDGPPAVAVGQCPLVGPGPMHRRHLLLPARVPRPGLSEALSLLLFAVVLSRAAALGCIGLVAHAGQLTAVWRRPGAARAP
Method: as §1

CCN1CCN(c2ccc(Nc3cc(Nc4cccc5c4N(C(C)=O)CC5)ccn3)cc2)CC1 [Compound 1938]
% Displacement Point 1 (ULK2): 3%
% Displacement Point 2 (ULK2): -0.488%
% Displacement mean (ULK2): 1.23%
% Displacement Point 1 (DMPK): 4.22%
% Displacement Point 2 (DMPK): 0.782%
% Displacement mean (DMPK): 2.5%
